{"source": "ChEMBL document CHEMBL3046632", "about": "(Med Chem Res, 2004)", "key": {"D(3) dopamine receptor": {"target": "D(3) dopamine receptor (Rattus norvegicus, UniProt P19020)", "sequence (P19020 whole entry)": "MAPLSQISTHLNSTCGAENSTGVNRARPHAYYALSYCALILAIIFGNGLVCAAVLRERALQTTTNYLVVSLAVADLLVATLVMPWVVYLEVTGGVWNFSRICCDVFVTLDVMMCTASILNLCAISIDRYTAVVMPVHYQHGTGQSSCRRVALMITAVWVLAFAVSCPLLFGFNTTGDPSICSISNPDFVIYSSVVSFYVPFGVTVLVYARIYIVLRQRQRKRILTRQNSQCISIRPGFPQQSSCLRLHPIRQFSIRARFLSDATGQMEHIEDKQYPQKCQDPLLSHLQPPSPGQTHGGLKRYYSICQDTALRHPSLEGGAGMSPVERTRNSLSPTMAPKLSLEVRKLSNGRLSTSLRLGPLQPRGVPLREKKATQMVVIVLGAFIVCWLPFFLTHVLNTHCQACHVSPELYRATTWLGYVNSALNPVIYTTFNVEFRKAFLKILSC", "assay": "biochemical"}, "[1]": {"target": "Dopamine receptor D2 and D3 (Rattus norvegicus, UniProt P19020+P61169)", "assay": "Agonist activity at Rattus norvegicus (rat) dopamine D2/D3 receptor transfected in african green monkey COS7 cells assessed as inhibition of forskolin-stimulated adenylyl cyclase activity after 10 min", "assay_type": "functional, cell-based", "conditions": "cos-7"}, "D(2) dopamine receptor": {"target": "D(2) dopamine receptor (Rattus norvegicus, UniProt P61169)", "sequence (P61169 whole entry)": "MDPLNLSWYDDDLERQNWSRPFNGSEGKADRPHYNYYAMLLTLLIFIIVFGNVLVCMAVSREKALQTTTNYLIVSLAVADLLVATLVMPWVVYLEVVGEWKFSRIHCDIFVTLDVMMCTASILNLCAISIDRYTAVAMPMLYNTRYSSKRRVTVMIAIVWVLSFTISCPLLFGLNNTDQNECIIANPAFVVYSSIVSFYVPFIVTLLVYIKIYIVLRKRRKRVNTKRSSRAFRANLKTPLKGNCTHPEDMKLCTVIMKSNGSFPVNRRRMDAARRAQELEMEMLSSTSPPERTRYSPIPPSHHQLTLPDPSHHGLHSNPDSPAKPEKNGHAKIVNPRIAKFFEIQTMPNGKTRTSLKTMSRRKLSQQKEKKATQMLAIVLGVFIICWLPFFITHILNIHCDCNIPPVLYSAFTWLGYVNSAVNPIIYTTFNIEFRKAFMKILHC", "assay": "Agonist activity at Rattus norvegicus (rat) dopamine D2 receptor transfected in african green monkey COS7 cells assessed as inhibition of forskolin-stimulated adenylyl cyclase activity after 10 min", "assay_type": "functional, cell-based, COS-7"}}, "note": "pEC50, pIC50, pKi: −log10 of the molar value."}
{"smiles": "N#Cc1ccc2c(c1)[C@H]1CN(CCCCNC(=O)c3ccc(-c4ccccc4)cc3)C[C@@H]1CO2", "values": [{"measurement": "pKi", "setting": "D(3) dopamine receptor", "result": 8.62}]}
{"smiles": "CCCN1CCO[C@@H]2c3cc(C(N)=O)ccc3CC[C@H]21", "note": "(relative stereo)", "values": [{"measurement": "EC50", "setting": "[1]", "result": 1.5, "unit": "nM"}, {"measurement": "pEC50", "setting": "D(2) dopamine receptor", "result": 7.31}, {"measurement": "pIC50", "setting": "D(3) dopamine receptor", "result": 8.38}]}
{"smiles": "CCCN[C@H]1CCc2nc(N)sc2C1", "note": "[PRAMIPEXOLE]", "values": [{"measurement": "pIC50", "setting": "D(3) dopamine receptor", "result": 8.11}]}
{"smiles": "CCCN(CCC)CCc1cccc2c1CC(=O)N2", "note": "[ROPINIROLE]", "values": [{"measurement": "pEC50", "setting": "D(2) dopamine receptor", "result": 7.12}]}
